Key:
Assay in all cases: Kinase selectivity, DiscoverX scanMAX Kinase assay panel (% control)
Assay type in all cases: binding
[1] = target: T1, kinases of the scanMAX Kinase assay panel (Homo sapiens, UniProt Q8IVH8); settings: MAP4K3; 1 uM
T1 construct: purchased DiscoverX Co. (contract measurement) scanMAX Kinase assay panel
T1 sequence (Q8IVH8 1-894): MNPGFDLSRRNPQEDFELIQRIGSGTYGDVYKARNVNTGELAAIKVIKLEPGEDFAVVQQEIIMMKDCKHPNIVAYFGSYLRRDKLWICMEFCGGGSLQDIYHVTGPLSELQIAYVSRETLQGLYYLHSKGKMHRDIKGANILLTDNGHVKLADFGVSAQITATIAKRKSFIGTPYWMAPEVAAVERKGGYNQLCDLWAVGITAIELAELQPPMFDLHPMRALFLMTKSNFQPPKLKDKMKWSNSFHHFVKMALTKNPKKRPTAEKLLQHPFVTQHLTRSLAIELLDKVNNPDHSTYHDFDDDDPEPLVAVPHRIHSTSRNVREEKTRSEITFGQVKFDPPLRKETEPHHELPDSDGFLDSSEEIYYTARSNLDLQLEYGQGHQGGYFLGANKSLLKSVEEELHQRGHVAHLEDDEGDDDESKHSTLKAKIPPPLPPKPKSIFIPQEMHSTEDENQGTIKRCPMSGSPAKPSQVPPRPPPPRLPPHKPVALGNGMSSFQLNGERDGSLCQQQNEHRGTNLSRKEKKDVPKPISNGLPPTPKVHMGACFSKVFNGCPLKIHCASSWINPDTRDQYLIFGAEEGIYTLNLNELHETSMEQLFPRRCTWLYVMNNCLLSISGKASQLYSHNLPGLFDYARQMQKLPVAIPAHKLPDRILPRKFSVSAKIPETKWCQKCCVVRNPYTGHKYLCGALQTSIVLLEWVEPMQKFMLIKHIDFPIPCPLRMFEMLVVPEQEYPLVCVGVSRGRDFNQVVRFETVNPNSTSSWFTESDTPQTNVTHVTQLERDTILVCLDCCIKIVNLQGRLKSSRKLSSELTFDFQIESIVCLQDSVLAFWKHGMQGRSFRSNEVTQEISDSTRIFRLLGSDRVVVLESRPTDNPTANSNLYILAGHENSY
How it was run: (§1)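 A 1 uM DMSO solution of compound was applied across the panel kinases, and results were expressed as % control relative to DMSO (100%) and a positive control (0%).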

[2] = target: T2, kinases of the scanMAX Kinase assay panel (Homo sapiens, UniProt P41743); settings: PRKCI; 1 uM
T2 construct: purchased DiscoverX Co. (contract measurement) scanMAX Kinase assay panel
T2 sequence (P41743 1-596): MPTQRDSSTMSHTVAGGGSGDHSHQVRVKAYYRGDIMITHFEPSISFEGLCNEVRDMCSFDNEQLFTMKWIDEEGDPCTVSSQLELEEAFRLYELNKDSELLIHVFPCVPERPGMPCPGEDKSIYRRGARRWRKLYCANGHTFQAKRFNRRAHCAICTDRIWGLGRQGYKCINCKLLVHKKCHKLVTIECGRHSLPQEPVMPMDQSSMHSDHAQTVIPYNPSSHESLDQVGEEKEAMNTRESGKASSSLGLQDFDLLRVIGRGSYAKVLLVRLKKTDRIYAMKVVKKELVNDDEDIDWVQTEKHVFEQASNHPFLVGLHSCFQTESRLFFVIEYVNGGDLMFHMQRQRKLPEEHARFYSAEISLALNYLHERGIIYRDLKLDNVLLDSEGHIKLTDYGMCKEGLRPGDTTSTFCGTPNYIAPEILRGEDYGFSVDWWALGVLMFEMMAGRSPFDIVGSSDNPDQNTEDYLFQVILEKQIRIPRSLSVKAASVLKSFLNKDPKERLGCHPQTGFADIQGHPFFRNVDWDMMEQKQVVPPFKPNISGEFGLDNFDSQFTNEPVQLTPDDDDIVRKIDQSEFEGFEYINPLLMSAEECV
How it was run: as §1

[3] = target: T3, kinases of the scanMAX Kinase assay panel (Homo sapiens, UniProt P45985); settings: MEK4; 1 uM
T3 construct: purchased DiscoverX Co. (contract measurement) scanMAX Kinase assay panel
T3 sequence (P45985 1-399): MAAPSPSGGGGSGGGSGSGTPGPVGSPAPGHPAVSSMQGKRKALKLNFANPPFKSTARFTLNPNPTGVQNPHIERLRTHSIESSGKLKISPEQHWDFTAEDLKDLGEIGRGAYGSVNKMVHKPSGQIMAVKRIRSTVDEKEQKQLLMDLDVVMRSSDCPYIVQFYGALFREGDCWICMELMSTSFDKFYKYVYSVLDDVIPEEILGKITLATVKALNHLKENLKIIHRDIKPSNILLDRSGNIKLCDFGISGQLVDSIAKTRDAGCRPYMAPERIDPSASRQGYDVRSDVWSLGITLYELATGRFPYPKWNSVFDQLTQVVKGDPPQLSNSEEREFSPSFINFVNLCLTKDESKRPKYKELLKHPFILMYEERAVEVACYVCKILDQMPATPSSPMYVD
How it was run: as §1

[4] = target: T4, kinases of the scanMAX Kinase assay panel (Homo sapiens, UniProt Q13164); settings: ERK5; 1 uM
T4 construct: purchased DiscoverX Co. (contract measurement) scanMAX Kinase assay panel
How it was run: as §1

[5] = target: T5, kinases of the scanMAX Kinase assay panel (Homo sapiens, UniProt Q8TD08); settings: ERK8; 1 uM
T5 construct: purchased DiscoverX Co. (contract measurement) scanMAX Kinase assay panel
T5 sequence (Q8TD08 1-544): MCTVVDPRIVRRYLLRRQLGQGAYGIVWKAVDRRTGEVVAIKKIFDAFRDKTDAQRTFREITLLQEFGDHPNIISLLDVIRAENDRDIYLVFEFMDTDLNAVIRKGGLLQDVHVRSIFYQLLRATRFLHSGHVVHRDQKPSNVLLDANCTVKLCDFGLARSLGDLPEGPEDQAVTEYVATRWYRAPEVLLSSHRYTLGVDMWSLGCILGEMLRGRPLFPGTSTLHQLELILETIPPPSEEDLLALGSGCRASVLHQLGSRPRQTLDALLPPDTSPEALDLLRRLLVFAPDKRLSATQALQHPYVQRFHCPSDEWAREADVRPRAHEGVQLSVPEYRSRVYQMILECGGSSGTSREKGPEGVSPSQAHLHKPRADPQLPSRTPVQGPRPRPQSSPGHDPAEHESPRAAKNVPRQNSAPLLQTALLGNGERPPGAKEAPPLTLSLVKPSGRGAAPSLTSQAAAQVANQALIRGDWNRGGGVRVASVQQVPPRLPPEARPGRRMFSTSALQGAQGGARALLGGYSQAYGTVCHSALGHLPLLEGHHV
How it was run: as §1

T4 sequence (Q13164 whole entry): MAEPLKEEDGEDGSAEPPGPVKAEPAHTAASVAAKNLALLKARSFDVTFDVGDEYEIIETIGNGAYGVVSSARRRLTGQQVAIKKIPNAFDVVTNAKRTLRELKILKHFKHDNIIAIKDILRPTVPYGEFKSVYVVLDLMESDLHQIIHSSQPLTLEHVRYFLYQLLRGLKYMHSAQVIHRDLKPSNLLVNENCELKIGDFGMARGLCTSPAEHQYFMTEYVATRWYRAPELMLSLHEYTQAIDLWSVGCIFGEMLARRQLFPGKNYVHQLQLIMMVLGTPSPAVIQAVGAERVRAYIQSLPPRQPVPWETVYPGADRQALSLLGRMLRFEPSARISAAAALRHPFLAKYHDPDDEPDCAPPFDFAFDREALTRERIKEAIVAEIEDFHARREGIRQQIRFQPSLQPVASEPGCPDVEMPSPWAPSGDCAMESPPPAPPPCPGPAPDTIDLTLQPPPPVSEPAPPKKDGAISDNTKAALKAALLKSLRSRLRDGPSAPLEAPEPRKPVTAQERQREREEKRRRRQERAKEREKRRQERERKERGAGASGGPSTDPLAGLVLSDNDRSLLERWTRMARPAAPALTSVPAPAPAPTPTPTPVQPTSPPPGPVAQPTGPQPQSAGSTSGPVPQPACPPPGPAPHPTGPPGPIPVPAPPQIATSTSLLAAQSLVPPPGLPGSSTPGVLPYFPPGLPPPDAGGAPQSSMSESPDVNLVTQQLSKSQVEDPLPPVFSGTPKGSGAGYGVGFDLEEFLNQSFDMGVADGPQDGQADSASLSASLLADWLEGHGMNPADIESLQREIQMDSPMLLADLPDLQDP

Work on `CNc1nc(Nc2ccc(C(=O)N3CCOCC3)cc2OC)nc2[nH]cc(C#N)c12` [Example 1, 2-((2-methoxy-4-(morpholine-4-carbonyl)phenyl)amino)-4-(methylamino)-7H-pyrrolo[2,3-d]pyrimidine-5-carbonitrile] yielded a remaining binding at 1 µM [1] of 97%, a remaining binding at 1 µM [2] of 96% and a remaining binding at 1 µM [3] of 0%. For the same compound, the remaining binding at 1 µM [4] was 72% and the remaining binding at 1 µM [5] was 100%.
`CC1(Nc2nc(Nc3cnn([C@H]4CCN(C5COC5)C[C@@H]4F)c3Cl)nc3[nH]cc(C#N)c23)CC1` [Example 52, 2-((5-chloro-1-((3S,4S)-3-fluoro-1-(oxetane-3-yl)piperidine-4-yl)-1H-pyrazole-4-yl)amino)((1-methylcyclopropyl)amino)-7H-pyrrolo[2,3-d]pyrimidine-5-carbonitrile] gave a remaining binding at 1 µM [1] of 3.3%, a remaining binding at 1 µM [2] of 89% and a remaining binding at 1 µM [3] of 0%. It also gave a remaining binding at 1 µM [4] of 13% and a remaining binding at 1 µM [5] of 62%.
`CCNc1nc(Nc2ccc(C(=O)N3CCC(N4CCOCC4)CC3)cc2OC)nc2[nH]cc(C(F)(F)F)c12` [Example 104, (4-((4-(ethylamino)-5-(trifluoromethyl)-7H-pyrrolo[2,3-d]pyrimidine-2-yl)amino)-3-methoxyphenyl)(4-morpholinopiperidine-1-yl)methanone] was tested, and the remaining binding at 1 µM [1] was 100%, the remaining binding at 1 µM [2] was 53% and the remaining binding at 1 µM [3] was 16%. The remaining binding at 1 µM [4] was 18% and the remaining binding at 1 µM [5] was 100%.
